The source of these data is patent publication US20170114049A1, “2,5-DISUBSTITUTED CYCLOPENTANE CARBOXYLIC ACIDS FOR THE TREATMENT OF RESPIRATORY TRACT DISEASES” (BAYER PHARMA AKTIENGESELLSCHAFT, priority 2014, published 2017).

In general, pIC50 refers to the negative decadic logarithm of the IC50, by convention in mol/L. Read a low pIC50 as a high IC50.

pIC50: −log10 of the molar value.

Common to all, as to format: biochemical
The target of one test is T1, MMP-10 (Homo sapiens, UniProt P09238).
T1 construct: purchased R&D Systems 910-MP
The experiment in a line: In vitro MMP-10 inhibition test. The source says:
(§1) The MMP-mediated amidolytic cleavage of a suitable peptide substrate leads to an increase in fluorescent light here too. The signal intensity of the fluorescent light is directly proportional to the enzyme activity. The active concentration of a test compound at which half the enzyme is inhibited (50% signal intensity of the fluorescent light) is reported as the […].
Recombinant MMP-10 (from R&D Systems, 910-MP) is chemically activated in accordance with the manufacturer's instructions using APMA. 1 μl of the test compound to be analysed (as a solution in DMSO, suitable concentrations, for example, 1 nM to 30 μM) is pipetted into 24 μl of activated enzyme (final concentration, for example, 2 nM) in reaction buffer (50 mM Tris/HCl pH 7.5, 10 mM CaCl2, 150 mM NaCl, 0.05% Brij®-35) in a white 384-hole microtiter plate (MTP). The enzymatic reaction is started by adding the intramolecularly quenched Mca-Arg-Pro-Lys-Pro-Val-Glu-Nval-Trp-Arg-Lys(Dnp)-NH2 substrate (final concentration, for example, 10 μM; R&D Systems, ES-002), so as to result in a total test volume of 50 μl. The course of the MMP-10 reaction is measured by measuring the fluorescence intensity (excitation 320 nm, emission 410 nm) over a suitable period of time (for example over 120 min at a temperature of 32° C.).

In the next test the target is T2, MMP-16 (Homo sapiens, UniProt P51512).
T2 construct: purchased R&D Systems 1785-MP
Description: In vitro MMP-16 inhibition test.
From the text: as §1
Recombinant MMP-16 (from R&D Systems, 1785-MP) is enzymatically activated in accordance with the manufacturer's instructions using recombinant furin (from R&D Systems, 1503-SE). 1 μl of the test compound to be analysed (as a solution in DMSO, suitable concentrations e.g. 1 nM to 30 μM) is pipetted into 24 μl of activated enzyme (final concentration e.g. 1 nM) in reaction buffer (50 mM Tris/HCl pH 7.5, 10 mM CaCl2, 150 mM NaCl, 0.05% Brij®-35) in a white 384-hole microtiter plate (MTP). The enzymatic reaction is started by adding the intramolecularly quenched Mca-Lys-Pro-Leu-Gly-Leu-Dpa(Dnp)-Ala-Arg-NH2 substrate (final concentration, for example, 5 μM; R&D Systems, ES-010), so as to result in a total test volume of 50 μl. The course of the MMP-16 reaction is measured by measuring the fluorescence intensity (excitation 320 nm, emission 410 nm) over a suitable period of time (for example over 120 min at a temperature of 32° C.).

In a further test the target is T3, mouse MMP-7 (Mus musculus, UniProt Q10738).
T3 construct: purchased R&D Systems 2967-MP
T3 sequence (Q10738 95-264): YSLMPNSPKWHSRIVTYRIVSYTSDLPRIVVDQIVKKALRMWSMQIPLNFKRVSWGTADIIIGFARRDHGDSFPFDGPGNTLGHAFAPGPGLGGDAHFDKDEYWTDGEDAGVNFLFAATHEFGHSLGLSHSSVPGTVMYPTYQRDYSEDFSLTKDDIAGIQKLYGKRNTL
Description: In vitro mouse MMP-7 inhibition test.
From the text: as §1
(§2) Recombinant mouse MMP-7 (from R&D Systems, 2967-MP) is chemically activated in accordance with the manufacturer's instructions using APMA. 1 μl of the test compound to be analysed (as a solution in DMSO, suitable concentrations, for example, 1 nM to 30 μM) is pipetted into 24 μl of activated enzyme (final concentration, for example, 0.5 nM) in reaction buffer (50 mM Tris/HCl pH 7.5, 10 mM CaCl2, 150 mM NaCl, 0.05% Brij®-35) in a white 384-hole microtiter plate (MTP). The enzymatic reaction is started by adding the intramolecularly quenched Mca-Lys-Pro-Leu-Gly-Leu-Dpa(Dnp)-Ala-Arg-NH2 substrate (final concentration, for example, 5 μM; R&D Systems, ES-010), so as to result in a total test volume of 50 μl. The course of the MMP-7 reaction is measured by measuring the fluorescence intensity (excitation 320 nm, emission 410 nm) over a suitable period of time (for example over 120 min at a temperature of 32° C.).

Another test concerns the target T4, mouse MMP-9 (Mus musculus, UniProt P41245).
T4 construct: purchased R&D Systems 909-MP
Description: In vitro mouse MMP-9 inhibition test.
From the text: as §1
as §2, with “MMP-9” for “MMP-7”, “909-MP)” for “2967-MP)”, “0.1” for “0.5”, “Mca-Pro-Leu-Gly-Leu-Dpa(Dnp)-Ala-Arg-NH2” for “Mca-Lys-Pro-Leu-Gly-Leu-Dpa(Dnp)-Ala-Arg-NH2”, “ES-001),” for “ES-010),”

Another test concerns the target T5, MMP-14 (Homo sapiens, UniProt P50281).
T5 construct: purchased R&D Systems 918-MP
The experiment in a line: In vitro MMP-14 inhibition test.
From the text: as §1
Recombinant MMP-14 (from R&D Systems, 918-MP) is enzymatically activated in accordance with the manufacturer's instructions using recombinant furin (from R&D Systems, 1503-SE). 1 μl of the test compound to be analysed (as a solution in DMSO, suitable concentrations e.g. 1 nM to 30 μM) is pipetted into 24 μl of activated enzyme (final concentration e.g. 0.5 nM) in reaction buffer (50 mM Tris/HCl pH 7.5, 10 mM CaCl2, 150 mM NaCl, 0.05% Brij®-35) in a white 384-hole microtiter plate (MTP). The enzymatic reaction is started by adding the intramolecularly quenched Mca-Lys-Pro-Leu-Gly-Leu-Dpa(Dnp)-Ala-Arg-NH2 substrate (final concentration, for example, 5 μM; R&D Systems, ES-010), so as to result in a total test volume of 50 μl. The course of the MMP-14 reaction is measured by measuring the fluorescence intensity (excitation 320 nm, emission 410 nm) over a suitable period of time (for example over 120 min at a temperature of 32° C.).

T4 sequence (P41245 108-730): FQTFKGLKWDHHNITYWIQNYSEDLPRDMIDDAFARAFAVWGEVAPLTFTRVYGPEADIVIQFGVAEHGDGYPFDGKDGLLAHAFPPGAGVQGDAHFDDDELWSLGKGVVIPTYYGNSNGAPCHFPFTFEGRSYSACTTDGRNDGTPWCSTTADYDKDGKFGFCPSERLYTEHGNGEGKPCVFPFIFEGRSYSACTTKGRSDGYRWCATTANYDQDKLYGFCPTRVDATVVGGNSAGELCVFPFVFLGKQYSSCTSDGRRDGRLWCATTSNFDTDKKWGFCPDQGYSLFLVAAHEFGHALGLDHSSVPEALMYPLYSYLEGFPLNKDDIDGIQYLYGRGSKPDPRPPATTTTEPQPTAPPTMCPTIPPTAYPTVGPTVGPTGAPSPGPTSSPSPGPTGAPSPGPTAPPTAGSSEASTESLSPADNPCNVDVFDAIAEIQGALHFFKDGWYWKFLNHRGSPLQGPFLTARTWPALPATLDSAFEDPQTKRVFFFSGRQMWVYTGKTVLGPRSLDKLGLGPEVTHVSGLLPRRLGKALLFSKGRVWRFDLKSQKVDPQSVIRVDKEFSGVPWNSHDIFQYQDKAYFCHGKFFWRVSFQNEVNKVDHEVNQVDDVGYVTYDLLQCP
T1 sequence (P09238 99-476): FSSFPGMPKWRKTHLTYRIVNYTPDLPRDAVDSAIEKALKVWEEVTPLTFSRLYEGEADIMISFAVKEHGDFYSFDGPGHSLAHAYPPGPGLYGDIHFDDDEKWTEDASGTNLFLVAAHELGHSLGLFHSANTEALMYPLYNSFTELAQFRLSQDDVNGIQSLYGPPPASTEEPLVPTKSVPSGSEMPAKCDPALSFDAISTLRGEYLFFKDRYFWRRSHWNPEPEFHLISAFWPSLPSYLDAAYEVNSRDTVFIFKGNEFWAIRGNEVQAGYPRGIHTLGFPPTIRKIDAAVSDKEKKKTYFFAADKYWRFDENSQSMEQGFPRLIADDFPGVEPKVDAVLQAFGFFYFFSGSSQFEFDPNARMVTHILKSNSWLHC
T2 sequence (P51512 120-607): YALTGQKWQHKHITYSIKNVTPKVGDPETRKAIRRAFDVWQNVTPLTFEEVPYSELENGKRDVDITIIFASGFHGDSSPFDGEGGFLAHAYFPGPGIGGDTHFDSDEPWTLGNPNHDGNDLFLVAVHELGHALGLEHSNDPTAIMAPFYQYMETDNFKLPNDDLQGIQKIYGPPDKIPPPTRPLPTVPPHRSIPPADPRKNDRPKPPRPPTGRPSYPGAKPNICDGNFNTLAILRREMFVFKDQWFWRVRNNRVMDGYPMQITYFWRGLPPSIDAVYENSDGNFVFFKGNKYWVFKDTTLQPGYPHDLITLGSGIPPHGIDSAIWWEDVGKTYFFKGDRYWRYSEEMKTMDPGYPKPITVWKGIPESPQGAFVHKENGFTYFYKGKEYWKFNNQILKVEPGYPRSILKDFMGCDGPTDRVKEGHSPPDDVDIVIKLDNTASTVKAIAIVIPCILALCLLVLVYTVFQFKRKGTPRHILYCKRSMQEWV

As for `O=C(O)[C@@H]1[C@@H](Cn2nnc3ccccc3c2=O)CC[C@H]1C(=O)c1ccc(OCCC2CCOCC2)cc1` (single isomer, unassigned) [Example 5, (+)-(1RS,2SR,5RS)-2-[(4-Oxo-1,2,3-benzotriazin-3(4H)-yl)methyl]-5-{4-[2-(tetrahydro-2H-pyran-4-yl)ethoxy]benzoyl}cyclopentanecarboxylic acid], the pIC50 against MMP-10 was 7.89; on MMP-16, 6.03; against mouse MMP-7, 6.89; on mouse MMP-9, 6.68; against MMP-14, 6.60.

As for `O=C(O)[C@H]1[C@H](Cn2nnc3ccc(C(F)(F)F)cc3c2=O)CC[C@@H]1C(=O)c1ccc(OCC2CCOCC2)cc1` (racemic) [Example 7, (+/−)-(1RS,2SR,5RS)-2-{[4-Oxo-6-(trifluoromethyl)-1,2,3-benzotriazin-3(4H)-yl]methyl}-5-[4-(tetrahydro-2H-pyran-4-ylmethoxy)benzoyl]cyclopentanecarboxylic acid], the pIC50 on MMP-10 was 4.96; on MMP-16, 6.08; at MMP-14, 6.77.

For the compound `O=C(O)[C@H]1[C@H](Cn2nnc3ccc(C(F)(F)F)cc3c2=O)CC[C@@H]1C(=O)c1ccc(OCCC2CCOCC2)cc1` (stereo in doubt) [Example 10, (+/−)-(1RS ,2S R,5RS)-2-{[4-Oxo-6-(trifluoromethyl)-1,2,3-benzotriazin-3(4H)-yl]methyl}-5-{4-[2-(tetrahydro-2H-pyran-4-yl)ethoxy]benzoyl}cyclopentanecarboxylic acid], the pIC50 was 5.29 on MMP-10; 5.74 against MMP-16; 6.89 on mouse MMP-7; 6.03 on mouse MMP-9; 6.22 at MMP-14.

`Cc1ccc2nnn(C[C@@H]3CC[C@H](C(=O)c4ccc(OCCC5CCOCC5)cc4)[C@H]3C(=O)O)c(=O)c2c1` (racemic) [Example 19, (+/−)-(1RS,2SR,5RS)-2-[(6-Methyl-4-oxo-1,2,3-benzotriazin-3(4H)-yl)methyl]-5-{4-[2-(letrahydro-2H-pyran-4-yl)ethoxy]benzoyl}cyclopentanecarboxylic acid]: the pIC50 at MMP-10 was 7.24; at MMP-16 it was 5.60; at mouse MMP-7, 6.20; against mouse MMP-9, 5.66; against MMP-14, 5.57.

Turning to `O=C(O)[C@@H]1[C@@H](Cn2nnc3ccccc3c2=O)CC[C@H]1C(=O)c1ccc(OCC2CCOCC2)cc1` (stereo in doubt) [Example 2, (+)-(1RS,2SR,5RS)-2-[(4-Oxo-1,2,3-benzotriazin-3(4H)-yl)methyl]-5-[4-(tetrahydro-2H-pyran-4-ylmethoxy)benzoyl]cyclopentanecarboxylic acid], the pIC50 at MMP-10 was 7.10; against MMP-16, 6.26; against mouse MMP-7, 7.28; on mouse MMP-9 it was 6.55; against MMP-14 it was 7.00.

Take “(+)-(1RS,2SR,5RS)-2-{[4-Oxo-6-(trifluoromethyl)-1,2,3-benzotriazin-3(4H)-yl]methyl}-5-[4-(tetra-hydro-2H-pyran-4-ylmethoxy)benzoyl]cyclopentanecarboxylic acid [Example 8]”: the pIC50 at MMP-10 is 7.92; on MMP-16, 6.55; on MMP-14, 7.00.

With `Cc1ccc2nnn(C[C@H]3CC[C@@H](C(=O)c4ccc(OCCC5CCOCC5)cc4)[C@@H]3C(=O)O)c(=O)c2c1` (single isomer, unassigned) [Example 20, (+)-(1RS,2SR,5RS)-2-[(6-Methyl-4-oxo-1,2,3-benzotriazin-3(4H)-yl)methyl]-5-{4-[2-(tetrahydro-2H-pyran-4-yl)ethoxy]benzoyl}cyclopentanecarboxylic acid], the pIC50 against MMP-10 was 7.51; on MMP-16 it was 5.51; against mouse MMP-7 it was 6.70; against mouse MMP-9 it was 6.10; on MMP-14, 6.00.

With `O=C(O)[C@H]1[C@H](Cn2nnc3ccccc3c2=O)CC[C@@H]1C(=O)c1ccc(OCCC2CCOCC2)cc1` (stereo in doubt) [Example 4, (+/−)-(1RS,2SR,5RS)-2-[(4-Oxo-1,2,3-benzotriazin-3(4H)-yl)methyl]-5-{4-[2-(tetrahydro-2H-pyran-4-yl)ethoxy]benzoyl}cyclopentanecarboxylic acid], the pIC50 on MMP-10 was 6.77; against MMP-16, 5.15; at mouse MMP-7, 5.85; on mouse MMP-9 it was 5.82; against MMP-14, 5.57.

For the compound `O=C(O)[C@@H]1[C@@H](Cn2nnc3ccc(C(F)(F)F)cc3c2=O)CC[C@H]1C(=O)c1ccc(OCCC2CCOCC2)cc1` (single isomer, unassigned) [Example 11, (+)-(1RS,2SR,5RS)-2-{[4-Oxo-6-(trifluoromethyl)-1,2,3-benzotriazin-3(4H)-yl]methyl}-5-{4-[2-(tetrahydro-2H-pyran-4-yl)ethoxy]benzoyl}cyclopentanecarboxylic acid], the negative-log IC50 (pIC50) on MMP-10 was 7.74; against MMP-16, 5.42; against mouse MMP-7, 6.68; on mouse MMP-9, 5.72; against MMP-14, 5.92.

Take `O=C(O)[C@@H]1[C@@H](Cn2nnc3ccc(C(F)(F)F)cc3c2=O)CC[C@H]1C(=O)c1ccc(SCC2CCOCC2)cc1` (single isomer, unassigned) [Example 15, (+)-(1RS,2SR,5RS)-2-{[4-Oxo-6-(trifluoromethyl)-1,2,3-benzotriazin-3(4H)-yl]methyl}-5-{4-[(tetrahydro-2H-pyran-4-ylmethyl)sulphanyl]benzoyl}cyclopentanecarboxylic acid]: the negative-log IC50 (pIC50) at MMP-10 is 8.05; on MMP-16 it was 6.12; against MMP-14 it was 6.82.
